According to patent US20250388553A1 (Incyte Corporation, priority 2018, published 2025):
Structures can show the parent of a compound that is named as a salt. Where two headings read alike, the source gives them in different places.

Tests used:
[1] = molecular target: PI3Kδ (p1106/p85a) Recombinant Human Protein (Homo sapiens (Human), UniProt O00329); assay: PI3Kδ scintillation proximity assay; assay type: biochemical
[2] = tested on: Phosphorylated Ribosomal Protein S6 (RPS6) in THP-1 cells; assay: THP-1 RPS6 ELISA assay; assay type: cell-based, Human; settings: THP-1 cells, 10 nM MCP-1, phospho-RPS6 ELISA, read-out: PI3Kγ_THP1_RPS6_ELISA IC50
From the text: Example A. THP-1 RPS6 ELISA Assay
To measure the Phosphorylated Ribosomal Protein S6 (RPS6) in cell lysates, THP-1 cells (Human Acute Monocytic Leukemia) are purchased from ATCC (Manassas, VA) and maintained in RPMI with 10% FBS (Gibco/Life Technologies, Carlsbad, CA). For the assay, THP-1 cells are serum starved overnight in RPMI, then plated in RPMI (2×10^5 cells/well in […]) into 96-well flat-bottom tissue culture treated plates (Corning, Corning, NY), in the presence or absence of a concentration range of test compounds. Covered plates are incubated for 2 hours at 37° C., 5% CO2 then treated with or without 10 nM MCP-1(MYBioSource, San Diego, CA) for 15 minutes at 37° C., 5% CO2. Plates are centrifuged at 1600 RPM and supernatants are removed. Cells are lysed in Lysis Buffer (Cell Signaling, Danvers, MA) with Protease Inhibitor (Calbiochem/EMD, Germany), PMSF (Sigma, St Louis MO), HALTS (Thermo Fisher, Rockford, IL) for 30 min on wet ice. Cell lysates are frozen at −80° C. before testing. The lysates are tested in the Human/Mouse/Rat Phospho-RPS6 ELISA (R&D Systems, Inc. Minn, MN). The plate is measured using a microplate reader (SpectraMax M5—Molecular Devices, LLC Sunnyvale, CA) set to 450 nm with a wavelength correction of 540. IC50 determination is performed by fitting the curve of inhibitor percent inhibition versus the log of the inhibitor concentration using the GraphPad Prism 5.0 software.
The compounds of the Examples were tested in the assays described in Examples A, B and C and found to have the IC50s are shown in Tables A1, A2, A3 and A4.

[3] = molecular target: PI3Kγ (p110γ) Recombinant Human Protein (Homo sapiens (Human), UniProt P48736); assay: PI3K-γ scintillation proximity assay; assay type: biochemical
Sequence of PI3Kγ (p110γ) Recombinant Human Protein (P48736 whole entry): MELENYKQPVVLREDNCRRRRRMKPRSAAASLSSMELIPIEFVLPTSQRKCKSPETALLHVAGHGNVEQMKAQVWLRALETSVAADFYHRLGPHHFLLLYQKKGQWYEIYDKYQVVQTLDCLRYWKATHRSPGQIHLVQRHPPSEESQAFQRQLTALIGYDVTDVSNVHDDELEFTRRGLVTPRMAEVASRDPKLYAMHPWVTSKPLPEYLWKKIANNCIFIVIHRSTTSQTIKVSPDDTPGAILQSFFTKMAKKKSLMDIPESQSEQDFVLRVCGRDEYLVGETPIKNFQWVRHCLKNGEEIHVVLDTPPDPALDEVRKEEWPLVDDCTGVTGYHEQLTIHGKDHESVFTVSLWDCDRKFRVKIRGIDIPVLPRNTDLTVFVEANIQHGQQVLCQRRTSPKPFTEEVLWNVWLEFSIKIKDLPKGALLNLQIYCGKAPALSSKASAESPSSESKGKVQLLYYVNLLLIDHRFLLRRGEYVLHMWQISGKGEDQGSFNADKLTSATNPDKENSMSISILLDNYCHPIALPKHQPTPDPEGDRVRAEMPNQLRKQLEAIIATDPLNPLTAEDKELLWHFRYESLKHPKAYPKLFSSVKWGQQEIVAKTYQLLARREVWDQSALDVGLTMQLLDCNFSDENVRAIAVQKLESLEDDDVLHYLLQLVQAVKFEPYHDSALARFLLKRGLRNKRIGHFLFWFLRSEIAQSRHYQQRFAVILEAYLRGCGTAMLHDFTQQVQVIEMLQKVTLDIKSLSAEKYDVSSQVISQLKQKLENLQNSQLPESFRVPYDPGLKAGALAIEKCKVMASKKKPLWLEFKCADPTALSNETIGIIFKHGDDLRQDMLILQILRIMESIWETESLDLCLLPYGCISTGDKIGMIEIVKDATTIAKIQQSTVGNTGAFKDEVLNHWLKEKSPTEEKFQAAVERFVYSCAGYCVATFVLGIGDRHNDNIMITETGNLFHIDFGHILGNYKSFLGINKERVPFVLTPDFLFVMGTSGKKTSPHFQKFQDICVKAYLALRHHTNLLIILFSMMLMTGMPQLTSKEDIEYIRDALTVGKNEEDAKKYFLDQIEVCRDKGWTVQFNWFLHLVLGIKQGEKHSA

[4] = Table A2, scintillation proximity assay, recombinant human PI3Kδ
[5] = Table A2, scintillation proximity assay, recombinant human p110γ
[6] = Table A3, scintillation proximity assay, recombinant human PI3Kδ
[7] = Table A3, scintillation proximity assay, recombinant human p110γ

Sequence of PI3Kδ (p1106/p85a) Recombinant Human Protein (O00329 whole entry): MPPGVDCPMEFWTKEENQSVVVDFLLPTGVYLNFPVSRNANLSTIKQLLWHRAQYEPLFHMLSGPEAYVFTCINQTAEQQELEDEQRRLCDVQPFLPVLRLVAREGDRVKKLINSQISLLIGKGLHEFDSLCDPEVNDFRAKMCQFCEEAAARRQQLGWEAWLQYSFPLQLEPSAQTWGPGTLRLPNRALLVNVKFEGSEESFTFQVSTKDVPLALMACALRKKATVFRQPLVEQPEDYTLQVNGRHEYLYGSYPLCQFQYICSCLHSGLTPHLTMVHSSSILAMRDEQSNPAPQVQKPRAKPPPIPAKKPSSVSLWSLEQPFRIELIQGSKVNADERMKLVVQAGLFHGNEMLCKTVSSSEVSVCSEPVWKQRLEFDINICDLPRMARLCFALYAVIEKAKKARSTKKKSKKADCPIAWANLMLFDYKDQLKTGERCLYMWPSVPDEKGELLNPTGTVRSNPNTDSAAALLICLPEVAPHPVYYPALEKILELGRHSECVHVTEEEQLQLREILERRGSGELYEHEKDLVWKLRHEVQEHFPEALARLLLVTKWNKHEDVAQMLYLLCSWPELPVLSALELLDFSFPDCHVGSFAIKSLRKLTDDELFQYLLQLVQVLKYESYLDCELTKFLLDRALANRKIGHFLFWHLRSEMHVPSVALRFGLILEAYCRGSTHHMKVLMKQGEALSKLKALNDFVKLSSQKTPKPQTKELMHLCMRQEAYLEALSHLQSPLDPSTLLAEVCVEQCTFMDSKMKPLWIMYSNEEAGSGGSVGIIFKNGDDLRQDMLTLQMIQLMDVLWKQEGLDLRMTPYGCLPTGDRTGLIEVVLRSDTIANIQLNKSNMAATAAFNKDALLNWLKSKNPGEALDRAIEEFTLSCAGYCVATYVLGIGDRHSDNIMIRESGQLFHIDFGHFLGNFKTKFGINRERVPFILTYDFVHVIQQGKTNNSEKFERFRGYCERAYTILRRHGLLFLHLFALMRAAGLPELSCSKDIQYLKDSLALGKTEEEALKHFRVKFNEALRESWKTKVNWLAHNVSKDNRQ
Sequence of PI3Kδ (p1106/p85a) Recombinant Human Protein (P27986 whole entry partner): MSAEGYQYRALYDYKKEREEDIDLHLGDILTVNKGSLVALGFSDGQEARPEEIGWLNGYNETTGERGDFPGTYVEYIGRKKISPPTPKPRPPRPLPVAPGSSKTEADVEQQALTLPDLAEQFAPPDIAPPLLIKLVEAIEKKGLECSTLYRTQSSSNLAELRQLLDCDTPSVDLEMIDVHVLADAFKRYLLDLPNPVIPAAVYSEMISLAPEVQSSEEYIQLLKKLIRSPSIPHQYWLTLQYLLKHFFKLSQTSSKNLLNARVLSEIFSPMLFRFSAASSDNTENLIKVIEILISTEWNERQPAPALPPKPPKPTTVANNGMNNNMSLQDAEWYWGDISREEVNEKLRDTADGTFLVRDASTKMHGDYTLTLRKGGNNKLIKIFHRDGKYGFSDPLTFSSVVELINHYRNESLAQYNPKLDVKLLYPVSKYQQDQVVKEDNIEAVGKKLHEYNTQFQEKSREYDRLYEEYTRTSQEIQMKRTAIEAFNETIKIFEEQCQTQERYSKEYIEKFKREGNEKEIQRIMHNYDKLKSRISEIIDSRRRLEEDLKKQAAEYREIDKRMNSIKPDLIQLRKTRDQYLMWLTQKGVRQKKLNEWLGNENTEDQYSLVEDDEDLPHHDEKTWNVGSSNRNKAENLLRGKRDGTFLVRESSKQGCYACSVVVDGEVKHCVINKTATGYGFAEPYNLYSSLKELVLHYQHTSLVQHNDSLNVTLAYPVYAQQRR

| SMILES | IC50 [1, 6] | IC50 ([2]; Homo sapiens, Table A3) | IC50 [3, 7] | also measured |
| --- | --- | --- | --- | --- |
| Cc1ccc(C(O)(C(N)=O)C(F)(F)F)cc1-c1cnc(N)c(C#Cc2ccn[nH]2)n1 (stereo not drawn) [Example 52, 2-(3-(6-((1H-pyrazol-5-yl)ethynyl)-5-aminopyrazin-2-yl)-4-methylphenyl)-3,3,3-trifluoro-2-hydroxypropanamide] |  |  |  | IC50 [1, 4]: < 100 nM; IC50 ([2]; Homo sapiens, Table A2): 100 to 500 nM; IC50 [3, 5]: < 100 nM |
| Cc1ccc(C(O)(C(N)=O)C(F)(F)F)cc1-c1cnc(N)c(C#Cc2cncn2C)n1 (stereo not drawn) [Example 53, 2-(3-(5-amino-6-((1-methyl-1H-imidazol-5-yl)ethynyl)pyrazin-2-yl)-4-methylphenyl)-3,3,3-trifluoro-2-hydroxypropanamide] |  |  |  | IC50 [1, 4]: < 100 nM; IC50 ([2]; Table A2): 100 to 500 nM; IC50 [3, 5]: < 100 nM |
| Cc1ncc(-c2nc(-c3cc(C(O)(C(N)=O)C(F)(F)F)ccc3C)cnc2N)o1 (stereo not drawn) [Example 70, 2-(3-(5-amino-6-(2-methyloxazol-5-yl)pyrazin-2-yl)-4-methylphenyl)-3,3,3-trifluoro-2-hydroxypropanamide trifluoroacetate] | < 100 nM | < 100 nM | < 100 nM |  |
| Cc1ccc(C(O)(C(N)=O)C(F)(F)F)cc1-c1cnc(N)c(-c2cnn(C)c2)n1 (stereo not drawn) [Example 71, 2-(3-(5-amino-6-(1-methyl-1H-pyrazol-4-yl)pyrazin-2-yl)-4-methylphenyl)-3,3,3-trifluoro-2-hydroxypropanamide trifluoroacetate] | < 100 nM | < 100 nM | < 100 nM |  |
| Cc1ccc(C(O)(C(N)=O)C(F)(F)F)cc1-c1cnc(N)c(-c2cnn(C)n2)n1 (stereo not drawn) [Example 73, 2-(3-(5-amino-6-(2-methyl-2H-1,2,3-triazol-4-yl)pyrazin-2-yl)-4-methylphenyl)-3,3,3-trifluoro-2-hydroxypropanamide trifluoroacetate] | < 100 nM | < 100 nM | < 100 nM |  |
| Cc1ccc(C(O)(C(N)=O)C(F)(F)F)cc1-c1cnc(N)c(-c2cnnn2C)n1 (stereo not drawn) [Example 74, 2-(3-(5-amino-6-(1-methyl-1H-1,2,3-triazol-5-yl)pyrazin-2-yl)-4-methylphenyl)-3,3,3-trifluoro-2-hydroxypropanamide trifluoroacetate] | < 100 nM | < 100 nM | < 100 nM |  |
| Cc1ccc(C(O)(C(N)=O)C(F)(F)F)cc1-c1cnc(N)c(-c2cnn(CC(F)(F)F)c2)n1 (stereo not drawn) [Example 75, 2-(3-(5-amino-6-(1-(2,2,2-trifluoroethyl)-1H-pyrazol-4-yl)pyrazin-2-yl)-4-methylphenyl)-3,3,3-trifluoro-2-hydroxypropanamide trifluoroacetate] | < 100 nM | < 100 nM | < 100 nM |  |
| Cc1ccc(C(O)(C(N)=O)C(F)(F)F)cc1-c1cnc(N)c(-c2cnn(C(C)(C)C#N)c2)n1 (stereo not drawn) [Example 76, 2-(3-(5-amino-6-(1-(2-cyanopropan-2-yl)-1H-pyrazol-4-yl)pyrazin-2-yl)-4-methylphenyl)-3,3,3-trifluoro-2-hydroxypropanamide trifluoroacetate] | < 100 nM | < 100 nM | < 100 nM |  |
| Cc1ccc(C(O)(C(N)=O)C(F)(F)F)cc1-c1cnc(N)c(-c2cnn(C3CCOCC3)c2)n1 (stereo not drawn) [Example 77, 2-(3-(5-amino-6-(1-(tetrahydro-2H-pyran-4-yl)-1H-pyrazol-4-yl)pyrazin-2-yl)-4-methylphenyl)-3,3,3-trifluoro-2-hydroxypropanamide trifluoroacetate] | < 100 nM | < 100 nM | < 100 nM |  |
| Cc1ccc(C(O)(C(N)=O)C(F)(F)F)cc1-c1cnc(N)c(-c2cnn(CC3(C#N)CC3)c2)n1 (stereo not drawn) [Example 78, 2-(3-(5-amino-6-(1-((1-cyanocyclopropyl)methyl)-1H-pyrazol-4-yl)pyrazin-2-yl)-4-methylphenyl)-3,3,3-trifluoro-2-hydroxypropanamide trifluoroacetate] |  | < 100 nM |  | IC50 [1]: < 100 nM; IC50 [3]: < 100 nM |
| COCCn1cc(-c2nc(-c3cc(C(O)(C(N)=O)C(F)(F)F)ccc3C)cnc2N)cn1 (stereo not drawn) [Example 79, 2-(3-(5-amino-6-(1-(2-methoxyethyl)-1H-pyrazol-4-yl)pyrazin-2-yl)-4-methylphenyl)-3,3,3-trifluoro-2-hydroxypropanamide trifluoroacetate] | < 100 nM | < 100 nM | < 100 nM |  |
| CNC(=O)c1ccc(-c2nc(-c3cc(C(O)(C(N)=O)C(F)(F)F)ccc3C)cnc2N)cn1 (stereo not drawn) [Example 80, 5-(3-amino-6-(5-(3-amino-1,1,1-trifluoro-2-hydroxy-3-oxopropan-2-yl)-2-methylphenyl)pyrazin-2-yl)-N-methylpicolinamide bistrifluoroacetate] | 100 to 500 nM | 500 to 1000 nM | < 100 nM |  |
| Cc1ccc(C(O)(C(N)=O)C(F)(F)F)cc1-c1cnc(N)c(-c2cncnc2)n1 (stereo not drawn) [Example 81, 2-(3-(5-amino-6-(pyrimidin-5-yl)pyrazin-2-yl)-4-methylphenyl)-3,3,3-trifluoro-2-hydroxypropanamide trifluoroacetate] | 100 to 500 nM | 100 to 500 nM | < 100 nM |  |
| Cc1ccc(-c2nc(-c3cc(C(O)(C(N)=O)C(F)(F)F)ccc3C)cnc2N)cn1 (stereo not drawn) [Example 82, 2-(3-(5-amino-6-(6-methylpyridin-3-yl)pyrazin-2-yl)-4-methylphenyl)-3,3,3-trifluoro-2-hydroxypropanamide bistrifluoroacetate] | < 100 nM | 100 to 500 nM | < 100 nM |  |
| Cc1ccc(C(O)(C(N)=O)C(F)(F)F)cc1-c1cnc(N)c(-c2ccc(C(F)(F)F)nc2)n1 (stereo not drawn) [Example 83, 2-(3-(5-amino-6-(6-(trifluoromethyl)pyridin-3-yl)pyrazin-2-yl)-4-methylphenyl)-3,3,3-trifluoro-2-hydroxypropanamide bistrifluoroacetate] | < 100 nM | 100 to 500 nM | < 100 nM |  |
| Cc1ccc(C(O)(C(N)=O)C(F)(F)F)cc1-c1cnc(N)c(-c2cnc(C3CC3)s2)n1 (stereo not drawn) [Example 84, 2-(3-(5-amino-6-(2-cyclopropylthiazol-5-yl)pyrazin-2-yl)-4-methylphenyl)-3,3,3-trifluoro-2-hydroxypropanamide trifluoroacetate] | < 100 nM | 100 to 500 nM | < 100 nM |  |
| Cc1ccc(C(O)(C(N)=O)C(F)(F)F)cc1-c1cnc(N)c(-c2ccnc(CO)c2)n1 (stereo not drawn) [Example 85, 2-(3-(5-amino-6-(2-(hydroxymethyl)pyridin-4-yl)pyrazin-2-yl)-4-methylphenyl)-3,3,3-trifluoro-2-hydroxypropanamide bistrifluoroacetate] | < 100 nM | 100 to 500 nM | < 100 nM |  |
| Cc1ccc(C(O)(C(N)=O)C(F)(F)F)cc1-c1cnc(N)c(-c2cnn(CC3CC3)c2)n1 (stereo not drawn) [Example 86, 2-(3-(5-amino-6-(1-(cyclopropylmethyl)-1H-pyrazol-4-yl)pyrazin-2-yl)-4-methylphenyl)-3,3,3-trifluoro-2-hydroxypropanamide trifluoroacetate] | < 100 nM | < 100 nM | < 100 nM |  |
| Cc1ccc(C(O)(C(N)=O)C(F)(F)F)cc1-c1cnc(N)c(-c2ccc(CC#N)cc2)n1 (stereo not drawn) [Example 87, 2-(3-(5-amino-6-(4-(cyanomethyl)phenyl)pyrazin-2-yl)-4-methylphenyl)-3,3,3-trifluoro-2-hydroxypropanamide trifluoroacetate] | < 100 nM | 100 to 500 nM | < 100 nM |  |
| Cc1ccc(C(O)(C(N)=O)C(F)(F)F)cc1-c1cnc(N)c(-c2ccc(CO)cc2)n1 (stereo not drawn) [Example 88, 2-(3-(5-amino-6-(4-(hydroxymethyl)phenyl)pyrazin-2-yl)-4-methylphenyl)-3,3,3-trifluoro-2-hydroxypropanamide trifluoroacetate] | < 100 nM | 100 to 500 nM | < 100 nM |  |
| CNC(=O)c1ccc(-c2nc(-c3cc(C(O)(C(N)=O)C(F)(F)F)ccc3C)cnc2N)cc1 (stereo not drawn) [Example 89, 4-(3-amino-6-(5-(3-amino-1,1,1-trifluoro-2-hydroxy-3-oxopropan-2-yl)-2-methylphenyl)pyrazin-2-yl)-N-methylbenzamide trifluoroacetate] | < 100 nM | 100 to 500 nM | < 100 nM |  |
